Tests used:
[1] = system: rice (Oryza sativa); experiment: Test B flooded paddy test, visual rating 0-100 (0 no effect, 100 complete control); details: Flood, 250 g ai/ha, applied to paddy water, rated after 13 to 15 days
[2] = system: barnyardgrass (Echinochloa crus-galli); experiment: Test A preemergence, visual injury rating 0-100 (0 no effect, 100 complete control); type: in vivo
[3] = system: ducksalad (Heteranthera limosa); experiment: Test B flooded paddy test, visual rating 0-100; details: Flood, 250 g ai/ha, applied to paddy water, rated after 13 to 15 days
[4] = system: ryegrass, Italian (Italian ryegrass, Lolium multiflorum); experiment: Test A postemergence, visual injury rating 0-100; type: in vivo; details: 0 to 100 scale
[5] = system: blackgrass (Alopecurus myosuroides); experiment: Test A postemergence, visual injury rating 0-100; type: in vivo; details: 0 to 100 scale
[6] = system: kochia (Kochia scoparia); experiment: Test A postemergence, visual injury rating 0-100; type: in vivo; details: 0 to 100 scale
[7] = system: barnyardgrass (Echinochloa crus-galli); experiment: Test A postemergence, visual injury rating 0-100; type: in vivo; details: 0 to 100 scale
[8] = system: corn (Zea mays); experiment: Test A postemergence, visual injury rating 0-100; type: in vivo; details: 0 to 100 scale
[9] = system: foxtail, giant (giant foxtail, Setaria faberii); experiment: Test A postemergence, visual injury rating 0-100; type: in vivo; details: 0 to 100 scale
[10] = system: galium (catchweed bedstraw, Galium aparine); experiment: Test A postemergence, visual injury rating 0-100; type: in vivo; details: 0 to 100 scale
[11] = system: pigweed (Amaranthus retroflexus); experiment: Test A postemergence, visual injury rating 0-100; type: in vivo; details: 0 to 100 scale
[12] = system: wheat (Triticum aestivum); experiment: Test A postemergence, visual injury rating 0-100; type: in vivo; details: 0 to 100 scale
[13] = system: ragweed (common ragweed, Ambrosia elatior); experiment: Test A postemergence, visual injury rating 0-100; type: in vivo; details: 0 to 100 scale
[14] = system: barnyardgrass (Echinochloa crus-galli); experiment: Test B flooded paddy test, visual rating 0-100; details: Flood, 250 g ai/ha, applied to paddy water, rated after 13 to 15 days
[15] = system: ryegrass, Italian (Italian ryegrass, Lolium multiflorum); experiment: Test A preemergence, visual injury rating 0-100; type: in vivo
[16] = system: kochia (Kochia scoparia); experiment: Test A preemergence, visual injury rating 0-100; type: in vivo
[17] = system: foxtail, giant (giant foxtail, Setaria faberii); experiment: Test A preemergence, visual injury rating 0-100; type: in vivo
[18] = system: pigweed (Amaranthus retroflexus); experiment: Test A preemergence, visual injury rating 0-100; type: in vivo
[19] = system: ragweed (common ragweed, Ambrosia elatior); experiment: Test A preemergence, visual injury rating 0-100; type: in vivo

## CC1=[N+]([O-])C(C(=O)Nc2cccc(F)c2F)C(c2ccc(C(F)(F)F)c(C)c2)C1 (racemic) [Compound 87]
[1]
  Rice plant response rating (0 to 100 scale): 0
[2]; 125 g ai/ha
  Barnyardgrass plant response rating (0 to 100 scale): 90
[2]; 500 g ai/ha
  Barnyardgrass plant response rating (0 to 100 scale): 90
[3]
  Ducksalad plant response rating (0 to 100 scale): 85
[4]; 125 g ai/ha
  Ryegrass, Italian plant response rating: 70
[4]; 500 g ai/ha
  Ryegrass, Italian plant response rating: 90
[5]; 125 g ai/ha
  Blackgrass plant response rating: 70
[5]; 500 g ai/ha
  Blackgrass plant response rating: 90
[6]; 125 g ai/ha
  Kochia plant response rating: 10
[6]; 500 g ai/ha
  Kochia plant response rating: 70
[7]; 125 g ai/ha
  Barnyardgrass plant response rating: 80
[7]; 500 g ai/ha
  Barnyardgrass plant response rating: 90
[8]; 125 g ai/ha
  Corn plant response rating: 70
[8]; 500 g ai/ha
  Corn plant response rating: 80
[9]; 125 g ai/ha
  Foxtail, Giant plant response rating: 60
[9]; 500 g ai/ha
  Foxtail, Giant plant response rating: 90
[10]; 125 g ai/ha
  Galium plant response rating: 0
[10]; 500 g ai/ha
  Galium plant response rating: 70
[11]; 125 g ai/ha
  Pigweed plant response rating: 0
[11]; 500 g ai/ha
  Pigweed plant response rating: 50
[12]; 125 g ai/ha
  Wheat plant response rating: 70
[12]; 500 g ai/ha
  Wheat plant response rating: 80
[13]; 125 g ai/ha
  Ragweed plant response rating: 10
[13]; 500 g ai/ha
  Ragweed plant response rating: 30
[14]
  Barnyardgrass plant response rating (0 to 100 scale): 50
[15]; 125 g ai/ha
  Ryegrass, Italian plant response rating (0 to 100 scale): 90
[15]; 500 g ai/ha
  Ryegrass, Italian plant response rating (0 to 100 scale): 90
[16]; 125 g ai/ha
  Kochia plant response rating (0 to 100 scale): 10
[16]; 500 g ai/ha
  Kochia plant response rating (0 to 100 scale): 80
[17]; 125 g ai/ha
  Foxtail, Giant plant response rating (0 to 100 scale): 90
[17]; 500 g ai/ha
  Foxtail, Giant plant response rating (0 to 100 scale): 90
[18]; 125 g ai/ha
  Pigweed plant response rating (0 to 100 scale): 100
[18]; 500 g ai/ha
  Pigweed plant response rating (0 to 100 scale): 100
[19]; 125 g ai/ha
  Ragweed plant response rating (0 to 100 scale): 0
[19]; 500 g ai/ha
  Ragweed plant response rating (0 to 100 scale): 70

## CC1=[N+]([O-])C(C(=O)Nc2cccc(F)c2F)C(c2ccc(C(F)(F)F)cn2)C1 (racemic) [Compound 88]
[1]
  Rice plant response rating (0 to 100 scale): 15
[2]; 125 g ai/ha
  Barnyardgrass plant response rating (0 to 100 scale): 20
[2]; 500 g ai/ha
  Barnyardgrass plant response rating (0 to 100 scale): 90
[3]
  Ducksalad plant response rating (0 to 100 scale): 100
[4]; 125 g ai/ha
  Ryegrass, Italian plant response rating: 0
[4]; 500 g ai/ha
  Ryegrass, Italian plant response rating: 0
[5]; 125 g ai/ha
  Blackgrass plant response rating: 10
[5]; 500 g ai/ha
  Blackgrass plant response rating: 30
[6]; 125 g ai/ha
  Kochia plant response rating: 0
[6]; 500 g ai/ha
  Kochia plant response rating: 30
[7]; 125 g ai/ha
  Barnyardgrass plant response rating: 0
[7]; 500 g ai/ha
  Barnyardgrass plant response rating: 50
[8]; 125 g ai/ha
  Corn plant response rating: 0
[8]; 500 g ai/ha
  Corn plant response rating: 0
[9]; 125 g ai/ha
  Foxtail, Giant plant response rating: 0
[9]; 500 g ai/ha
  Foxtail, Giant plant response rating: 10
[10]; 125 g ai/ha
  Galium plant response rating: 20
[10]; 500 g ai/ha
  Galium plant response rating: 50
[11]; 125 g ai/ha
  Pigweed plant response rating: 0
[11]; 500 g ai/ha
  Pigweed plant response rating: 0
[12]; 125 g ai/ha
  Wheat plant response rating: 0
[12]; 500 g ai/ha
  Wheat plant response rating: 0
[13]; 125 g ai/ha
  Ragweed plant response rating: 0
[13]; 500 g ai/ha
  Ragweed plant response rating: 10
[14]
  Barnyardgrass plant response rating (0 to 100 scale): 15
[15]; 125 g ai/ha
  Ryegrass, Italian plant response rating (0 to 100 scale): 0
[15]; 500 g ai/ha
  Ryegrass, Italian plant response rating (0 to 100 scale): 0
[16]; 125 g ai/ha
  Kochia plant response rating (0 to 100 scale): 10
[16]; 500 g ai/ha
  Kochia plant response rating (0 to 100 scale): 70
[17]; 125 g ai/ha
  Foxtail, Giant plant response rating (0 to 100 scale): 20
[17]; 500 g ai/ha
  Foxtail, Giant plant response rating (0 to 100 scale): 90
[18]; 125 g ai/ha
  Pigweed plant response rating (0 to 100 scale): 0
[18]; 500 g ai/ha
  Pigweed plant response rating (0 to 100 scale): 60
[19]; 125 g ai/ha
  Ragweed plant response rating (0 to 100 scale): 0
[19]; 500 g ai/ha
  Ragweed plant response rating (0 to 100 scale): 80

## CC1=[N+]([O-])C(C(=O)Nc2cccc(F)c2F)C(c2ccc(C(F)(F)F)c(Cl)c2)C1 (racemic) [Compound 102]
[1]
  Rice plant response rating (0 to 100 scale): 0
[2]; 125 g ai/ha
  Barnyardgrass plant response rating (0 to 100 scale): 80
[2]; 500 g ai/ha
  Barnyardgrass plant response rating (0 to 100 scale): 90
[3]
  Ducksalad plant response rating (0 to 100 scale): 0
[4]; 125 g ai/ha
  Ryegrass, Italian plant response rating: 40
[4]; 500 g ai/ha
  Ryegrass, Italian plant response rating: 50
[5]; 125 g ai/ha
  Blackgrass plant response rating: 60
[5]; 500 g ai/ha
  Blackgrass plant response rating: 80
[6]; 125 g ai/ha
  Kochia plant response rating: 30
[6]; 500 g ai/ha
  Kochia plant response rating: 40
[7]; 125 g ai/ha
  Barnyardgrass plant response rating: 70
[7]; 500 g ai/ha
  Barnyardgrass plant response rating: 80
[8]; 125 g ai/ha
  Corn plant response rating: 40
[8]; 500 g ai/ha
  Corn plant response rating: 40
[9]; 125 g ai/ha
  Foxtail, Giant plant response rating: 70
[9]; 500 g ai/ha
  Foxtail, Giant plant response rating: 80
[10]; 125 g ai/ha
  Galium plant response rating: 50
[10]; 500 g ai/ha
  Galium plant response rating: 70
[11]; 125 g ai/ha
  Pigweed plant response rating: 30
[11]; 500 g ai/ha
  Pigweed plant response rating: 70
[12]; 125 g ai/ha
  Wheat plant response rating: 20
[12]; 500 g ai/ha
  Wheat plant response rating: 40
[13]; 125 g ai/ha
  Ragweed plant response rating: 20
[13]; 500 g ai/ha
  Ragweed plant response rating: 50
[14]
  Barnyardgrass plant response rating (0 to 100 scale): 0
[15]; 125 g ai/ha
  Ryegrass, Italian plant response rating (0 to 100 scale): 70
[15]; 500 g ai/ha
  Ryegrass, Italian plant response rating (0 to 100 scale): 90
[16]; 125 g ai/ha
  Kochia plant response rating (0 to 100 scale): 10
[16]; 500 g ai/ha
  Kochia plant response rating (0 to 100 scale): 80
[17]; 125 g ai/ha
  Foxtail, Giant plant response rating (0 to 100 scale): 90
[17]; 500 g ai/ha
  Foxtail, Giant plant response rating (0 to 100 scale): 90
[18]; 125 g ai/ha
  Pigweed plant response rating (0 to 100 scale): 60
[18]; 500 g ai/ha
  Pigweed plant response rating (0 to 100 scale): 90
[19]; 125 g ai/ha
  Ragweed plant response rating (0 to 100 scale): 50
[19]; 500 g ai/ha
  Ragweed plant response rating (0 to 100 scale): 80

## CC1=[N+]([O-])C(C(=O)Nc2cccc(F)c2F)C(c2cc(C)cc(F)c2)C1 (racemic) [Compound 103]
[1]
  Rice plant response rating (0 to 100 scale): 0
[2]; 125 g ai/ha
  Barnyardgrass plant response rating (0 to 100 scale): 90
[2]; 500 g ai/ha
  Barnyardgrass plant response rating (0 to 100 scale): 90
[3]
  Ducksalad plant response rating (0 to 100 scale): 80
[4]; 125 g ai/ha
  Ryegrass, Italian plant response rating: 50
[4]; 500 g ai/ha
  Ryegrass, Italian plant response rating: 70
[5]; 125 g ai/ha
  Blackgrass plant response rating: 80
[5]; 500 g ai/ha
  Blackgrass plant response rating: 70
[6]; 125 g ai/ha
  Kochia plant response rating: 0
[6]; 500 g ai/ha
  Kochia plant response rating: 30
[7]; 125 g ai/ha
  Barnyardgrass plant response rating: 80
[7]; 500 g ai/ha
  Barnyardgrass plant response rating: 90
[8]; 125 g ai/ha
  Corn plant response rating: 50
[8]; 500 g ai/ha
  Corn plant response rating: 60
[9]; 125 g ai/ha
  Foxtail, Giant plant response rating: 80
[9]; 500 g ai/ha
  Foxtail, Giant plant response rating: 90
[10]; 125 g ai/ha
  Galium plant response rating: 0
[10]; 500 g ai/ha
  Galium plant response rating: 50
[11]; 125 g ai/ha
  Pigweed plant response rating: 0
[11]; 500 g ai/ha
  Pigweed plant response rating: 50
[12]; 125 g ai/ha
  Wheat plant response rating: 20
[12]; 500 g ai/ha
  Wheat plant response rating: 70
[13]; 125 g ai/ha
  Ragweed plant response rating: 40
[13]; 500 g ai/ha
  Ragweed plant response rating: 40
[14]
  Barnyardgrass plant response rating (0 to 100 scale): 65
[15]; 500 g ai/ha
  Ryegrass, Italian plant response rating (0 to 100 scale): 90
[16]; 125 g ai/ha
  Kochia plant response rating (0 to 100 scale): 10
[16]; 500 g ai/ha
  Kochia plant response rating (0 to 100 scale): 80
[17]; 125 g ai/ha
  Foxtail, Giant plant response rating (0 to 100 scale): 90
[17]; 500 g ai/ha
  Foxtail, Giant plant response rating (0 to 100 scale): 100
[18]; 125 g ai/ha
  Pigweed plant response rating (0 to 100 scale): 30
[18]; 500 g ai/ha
  Pigweed plant response rating (0 to 100 scale): 70
[19]; 125 g ai/ha
  Ragweed plant response rating (0 to 100 scale): 60
[19]; 500 g ai/ha
  Ragweed plant response rating (0 to 100 scale): 90
